The text below walks through data of paper PMC5750218, “Protein-inspired antibiotics active against vancomycin- and daptomycin-resistant bacteria” (Nature Communications, 2018).

The subject of data set [1] is HEK293 cells. Put plainly: Cytotoxicity MTT assay. Format: cell-based, human. The gist of the method:
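HepG2 and HEK293 cells, 1.5 × 10^4 per well in DMEM with 1% FBS, were allowed to attach for 24 h, then exposed 24 h at 37 °C to compounds at 100 µM to 0.046 µM in threefold steps. MTT (0.4 mg mL^−1) was added for 2 h, and formazan in DMSO was read at 570 nm. Viability is given as percent of control, corrected for a positive control.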
Background: Tetrazolium dyes change colour on reduction, which living cells bring about.

The test system of data set [2] is HepG2 cells. Put plainly: Cytotoxicity MTT assay. The format is cell-based, human.
The subject of data set [3] is cell-free particulate fraction of Bacillus megaterium KM (ATCC 13632). The experiment in a line: Cell-free peptidoglycan inhibition assay. Format: biochemical. The note with it: cell free radiolabelled synthesis assay. Here is the method:
The cell-free particulate fraction of Bacillus megaterium KM (ATCC®13632™) was used to catalyse the polymerisation of peptidoglycan from UPD-linked precursors in vitro following literature procedures. B. megaterium was grown in the medium containing 1% (w/v) tryptone (Difco-Bacto), 0.5% (w/v) yeast extract (Difco-Bacto), 0.25% (w/v) K2HPO4 and 0.5% (w/v) glucose with pH 7.2. Bacteria were harvested when the density had reached to 0.4 mg dry weight mL^−1 and washed in the buffer 0.05 M Tris-HCl (pH 7.8) containing 10 mM MgCl2 by centrifugation at 6000 × g for 10 min at 4 °C. All subsequent manipulations were carried out on ice. The bacteria were resuspended in the same buffer at a density of 50 mg dry weight mL^−1, and then subjected to three freeze/thaw cycles. Bacteria were then homogenised by using a glass homogeniser at 4 °C (2 × 10 min). The broken cell suspension was centrifuged at 6000 × g for 10 min at 4 °C. […] Integrated density value (IDV) of each band on silica gel was analysed using AlphaEase FC software (AlphaImager 2200). The change of peptidoglycan or Lipid II were calculated as percent from the IDV values of the control (without any antibiotic or compound).

For orientation: CC50 means the concentration that lowers cell viability or growth by half. Low values mean harm at low concentration, high ones better tolerance by the cells.

The structures appear in SMILES notation.

`CN[C@H]1C(=O)N[C@@H]2Cc3ccc(cc3)Oc3cc4cc(c3O[C@@H]3O[C@H](C(=O)O)[C@@H](O)[C@H](O)[C@H]3NC(=O)CCCCCCCCC(C)C)Oc3ccc(cc3Cl)[C@@H](O)[C@@H]3NC(=O)[C@H](NC(=O)[C@@H]4NC(=O)[C@@H](NC2=O)c2cc(cc(O)c2Cl)Oc2cc1ccc2O)c1ccc(O)c(c1)-c1c(O[C@H]2O[C@H](CO)[C@@H](O)[C@H](O)[C@@H]2O)cc(O)cc1[C@@H](C(=O)NCCCN(C)C)NC3=O` [Compound 3, Dalbavancin]: the CC50 in data set [1] stood at 73 µM; in data set [2], 259 µM.
As for `CCCCCCCCCCCCCC(=O)N[C@@H](CCCCN)C(=O)N[C@@H](CCCCN)C(=O)N[C@@H](CCCCN)C(=O)N[C@@H](CCCCNC(=O)[C@H]1NC(=O)[C@H]2NC(=O)[C@H](NC(=O)[C@@H]3NC(=O)[C@H](CC(N)=O)NC(=O)[C@H](NC(=O)[C@@H](CC(C)C)NC)[C@H](O)c4ccc(c(Cl)c4)Oc4cc3cc(c4O[C@@H]3O[C@H](CO)[C@@H](O)[C@H](O)[C@H]3O[C@H]3C[C@](C)(N)[C@H](O)[C@H](C)O3)Oc3ccc(cc3Cl)[C@H]2O)c2ccc(O)c(c2)-c2c(O)cc(O)cc21)C(=O)O` [Compound 17, nC13CO-KKK-K(Vancomycin)-OH], in data set [3], the “Peptidoglycan formation, 14C-GlcNAc incorporation” value is recorded as “inhibited peptidoglycan formation”.
